Values quoted from earlier work as cited in patent publication US20230049822A1, “COMPOSITIONS COMPRISING NICLOSAMIDE FOR USE IN TREATING CONDITIONS ASSOCIATED WITH AN ABNORMAL INFLAMMATORY RESPONSE” (First Wave Bio, Inc., priority 2020, published 2023).
Structures can show the parent of a compound that is named as a salt.

Experiments:
murine models of IBD = settings: see WO 2017/040864
[1] = test system: pathogenic T cells isolated from IBD patients; settings: see WO 2017/040864

SMILES	solubility in acetone	solubility in ether, ethanol and chloroform	water solubility (at 20° C.) [µg/mL]	efficacy in murine models of IBD (murine models of IBD)	killing of pathogenic T cells [1]	dissolves in distilled water (distilled water, 20° C.) [mg/L]
O=C(Nc1ccc([N+](=O)[O-])cc1Cl)c1cc(Cl)ccc1O [Niclosamide, 5-chloro-N-(2-chloro-4-nitrophenyl)-2-hydroxybenzamide]	soluble	sparingly soluble	5 to 8	effective	kills pathogenic T cells	–
O=C(Nc1ccc([N+](=O)[O-])cc1Cl)c1cc(Cl)ccc1O [ethanolamine salt, 5-chloro-N-(2-chloro-4-nitrophenyl)-2-hydroxybenzamide with 2-aminoethanol (1:1)]	–	–	–	–	–	180 to 280
